Source: PubChem BioAssay AID1436 (PCMD, 2008)
Results filed as inconclusive are left out. Calls of active or inactive are those of the source. How the calls were made is not given here.

Biological target: DNA repair protein RAD51 homolog 1 (Homo sapiens) (UniProt Q06609)
Experiment: inhibitors of RAD51 DNA binding, dose response, biochemical, fluorescence (AID 1436)

Chain of DNA repair protein RAD51 homolog 1 (Homo sapiens) (Q06609 whole entry, looked up): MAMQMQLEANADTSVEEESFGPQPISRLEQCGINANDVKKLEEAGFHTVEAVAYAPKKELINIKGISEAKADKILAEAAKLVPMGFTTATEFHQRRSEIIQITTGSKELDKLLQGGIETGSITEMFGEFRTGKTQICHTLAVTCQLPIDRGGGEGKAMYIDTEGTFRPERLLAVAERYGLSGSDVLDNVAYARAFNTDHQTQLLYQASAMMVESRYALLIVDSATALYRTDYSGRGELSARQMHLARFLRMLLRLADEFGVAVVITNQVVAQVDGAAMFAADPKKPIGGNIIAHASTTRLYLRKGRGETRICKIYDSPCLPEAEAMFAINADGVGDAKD

Compound | IC50
COc1cccc2c1C(=O)c1c(O)c3c(c(O)c1C2=O)C[C@@](O)(C(=O)CO)C[C@@H]3O[C@H]1C[C@H](N)[C@@H](O)[C@H](C)O1 | > 85 µM (inactive)
COC(=O)c1ccc(=O)c2nc3/c(=C/O)c(O)cc(=O)c3[nH]c12 | > 42.5 µM (inactive)
